The source of these data is publication PMC12473540, “Cytotoxic Activity of Chemical Constituents of Clerodendrum glabrum and Combretum nelsonii Root Extracts Against Selected Cancer Cell Lines” (Plants, 2025).

pIC50: −log10 of the molar value. ≈ marks a conversion by molar mass, not a printed value. Where two headings read alike, the source gives them in different places.

One data set in a line: in vitro. The method, then:
(§1) The antiproliferative activity of the crude extracts and compounds isolated from C. glabrum and C. nelsonii were tested against heterogenous human epithelial colorectal adenocarcinoma (Caco-2) and hormone receptor positive breast cancer (MCF-7) cells using the MTT assay. The Vero African green monkey kidney cells were used as the non-cancerous cell line for comparison. Doxorubicin was used as the positive control.
(§2) The cytotoxic activity of extracts and isolated compounds was evaluated using the MTT assay against colorectal adenocarcinoma (Caco-2, ATCC® HTB-37™), breast adenocarcinoma (MCF-7, ATCC® HTB-22™), and non-cancerous monkey kidney cells (Vero, ATCC® CCL-81™). Cell culture and maintenance were carried out following standard protocols. The cells were seeded in 96-well plates and exposed to varying concentrations of extracts (0.025–1 mg/mL) and compounds (0.2–200 µg/mL) for 48 h. Doxorubicin was used as a positive control, and DMSO as a negative control. Cell viability was determined by MTT reduction and absorbance was measured at 570 nm. LC50 values were calculated, and the selectivity index(SI) was obtained by dividing LC50 values of Vero cells by those of the cancer cell lines.

Data set [1] deals with human epithelial colorectal adenocarcinoma (Caco-2) cells. In words: in vitro. The settings on record: for CC50: Homo sapiens, Caco-2, 48 h, read-out: Caco-2 (LC50). The method, then:
as §1, §2

In data set [2] the test system is hormone receptor positive breast cancer (MCF-7) cells. Nature of the data set: MTT cytotoxicity assay on MCF-7 cells. The settings on record: for CC50: Homo sapiens, MCF7, 48 h, read-out: MCF-7 (LC50); for Selectivity Index MCF-7: LC50 of Vero cells divided by LC50 of MCF-7. The method, then: as §1
as §2, with “The cells were seeded in 96-well plates and exposed to varying concentrations of extracts (0.025–1 mg/mL) and compounds (0.2–200 µg/mL) for 48 h.” left out

A further data set deals with MCF-7. The settings on record: cited from earlier work.
The test system of data set [3] is gastric adenocarcinoma AGS cells. The settings on record: cited from earlier work.
The subject of data set [4] is human liver hepatocellular carcinoma HepG2 cells. The arrangement: method as in doi:10.18063/cp.v1i4.255, PMID 20614808, PMID 25355727, doi:10.1076/phbi.37.2.148.6082. The settings on record: ferruginol; read-out: Literature report HepG2 (IC50); cited from earlier work.
Data set [5] deals with prostate cancer PC3 cells. The arrangement: method as in doi:10.18063/cp.v1i4.255, PMID 20614808, PMID 25355727, doi:10.1076/phbi.37.2.148.6082. The settings on record: ferruginol; read-out: Literature report PC3 (IC50); cited from earlier work.
The test system of data set [6] is colon (COL-2) cancer cells. The arrangement: method as in doi:10.18063/cp.v1i4.255, PMID 20614808, PMID 25355727, doi:10.1076/phbi.37.2.148.6082. The note with it: ferruginol; cited from earlier work.
Data set [7] can be described thus: MTT cytotoxicity assay on Caco-2 cells. The note with it: African green monkey (Vero) and human (Caco-2), Caco-2. The method, then: as §1, §2
Data set [8] relates to prostate cancer cells (LNCaP). The arrangement: method as in ref 45 (ref 58). The settings on record: royleanone; ref 45 (ref 58); read-out: Literature report LNCaP IC50; cited from earlier work.
The test system of data set [9] is breast MDA-MB-231 cancer cell lines. The arrangement: method as in doi:10.4103/pm.pm_265_20. The settings on record: royleanone; read-out: Literature report MDA-MB-231 IC50; cited from earlier work.
Another data set relates to human colon HCT116. The arrangement: method as in doi:10.4103/pm.pm_265_20. The note with it: royleanone, result in words; cited from earlier work.
The subject of another data set is tubulin. The arrangement: method as in PMID 12059907, PMID 10893310. The settings on record: combretastatin A-1; read-out: Tubulin inhibition IC50; cited from earlier work.
Another data set relates to pancreas-a (BXPC-3). The arrangement: method as in ref 50 = [50]; 50. Akim A. Biological Activities of Oryzanol, Stigmasterol and Microminutinin on Human Breast Cancer Cell-Line, MCF-7 Ph.D. Thesis University Putra Malaysia Serdang, Malaysia 2004. The settings on record: cited from earlier work.
Another data set has as its system prostate (DU-145). The arrangement: method as in ref 50 = [50]; 50. Akim A. Biological Activities of Oryzanol, Stigmasterol and Microminutinin on Human Breast Cancer Cell-Line, MCF-7 Ph.D. Thesis University Putra Malaysia Serdang, Malaysia 2004. The note with it: cited from earlier work.
Another data set concerns leukemia (P388). The arrangement: method as in ref 50 = [50]; 50. Akim A. Biological Activities of Oryzanol, Stigmasterol and Microminutinin on Human Breast Cancer Cell-Line, MCF-7 Ph.D. Thesis University Putra Malaysia Serdang, Malaysia 2004. The note with it: cited from earlier work.
The test system of the next data set is colon (KM20L2). The arrangement: method as in ref 50 = [50]; 50. Akim A. Biological Activities of Oryzanol, Stigmasterol and Microminutinin on Human Breast Cancer Cell-Line, MCF-7 Ph.D. Thesis University Putra Malaysia Serdang, Malaysia 2004. The settings on record: cited from earlier work.
A further data set concerns lung-NCS (NCI-H460). The arrangement: method as in ref 50 = [50]; 50. Akim A. Biological Activities of Oryzanol, Stigmasterol and Microminutinin on Human Breast Cancer Cell-Line, MCF-7 Ph.D. Thesis University Putra Malaysia Serdang, Malaysia 2004. The settings on record: cited from earlier work.
Data set [10] relates to human colon carcinoma SW620 cell lines. The note with it: stigmasterol, in Table 2; cited from earlier work.
In another data set the test system is colon cancer cell Caco-2. The arrangement: method as in doi:10.4314/ecajps.v11i2.44769. The settings on record: stigmasterol; cited from earlier work.
Data set [11] has as its system triple negative breast cancer HCC70 cells. The arrangement: method as in doi:10.4314/ecajps.v11i2.44769. The note with it: stigmasterol; cited from earlier work.
Setting [12] is: African green monkey, Vero kidney cells (ATCC CCL-81), non-cancerous.

On to `CC(C)c1cc2c(cc1O)[C@@]1(C)CCCC(C)(C)[C@@H]1CC2` [Compound 1, 12-hydroxy-abieta-8,11,13-triene], for which the CC50 at 48 h in “in vitro” (African green monkey) was 0.0002 µg/mL (≈ 0.000698 µM). Further, the “Selectivity Index Caco-2” value in data set [1] (Caco-2) is reported as 8.23 × 10^−6. Besides, the results for the CC50 in [1] and in [2] were 24.3 µg/mL (≈ 84.8 µM) and 48.4 µg/mL (≈ 169 µM), respectively. For the same molecule, the pIC50 in the data set on MCF-7 (ferruginol, read-out: Literature report MCF-7 (IC50)) was 4.92; in [3] (ferruginol, read-out: Literature report AGS (IC50)), 4.57; in data set [4], 4.16; in [5], 4.26. The “Literature report colon (COL-2) ED50” value in [6] is on record as more than 20 µg/mL.

In “in vitro”, `CC(C)C1=C(O)C(=O)C2=C(CC[C@H]3C(C)(C)CCC[C@]23C)C1=O` [Compound 2, 12-hydroxy-8,12-abietadiene-11,14-dione] gave a CC50 at 48 h of 30.7 µg/mL (≈ 97 µM). Besides, the selectivity ratio at 48 h in data set [7] was less than 0.15. For the same molecule, the CC50 in [1] and in [2] was more than 200 µg/mL in each case. In [2], the “Selectivity Index MCF-7” value was less than 0.150. Also, the pIC50 in data set [3] (royleanone, read-out: Literature report AGS IC50) is 4.74; in [8] it was 4.90; in data set [9] it was less than 3.60. For the same molecule, in the data set on human colon HCT116, the “Literature report colon HCT116” value is on record as “variable”.

Consider `COc1ccc(/C=C\c2cc(OC)c(OC)c(OC)c2)c(O)c1O` [Compound 4, 3,4,5-trimethoxy-2′,3′hydroxyl-4′methoxy-stilbene], for which the CC50 at 48 h in the data set “in vitro” was determined as 15.3 µg/mL (≈ 46 µM). Also, in data set [2], the CC50 was determined as 72 µg/mL (≈ 217 µM) and the “Selectivity Index MCF-7” value is given as 0.210. In addition, in the data set with tubulin, the pIC50 was 5.96. Moreover, the “BXPC-3 GI50” value with pancreas-a (BXPC-3) is recorded as 4.4 µg/mL. Besides, in the data set on prostate (DU-145), the “DU-145 GI50” value is reported as 0.017 µg/mL. Further, in the data set with leukemia (P388), the “P388 GI50” value was 0.3 µg/mL. Besides, the “KM20L2 GI50” value in the data set with colon (KM20L2) is 0.061 µg/mL. The “NCI-H460 GI50” value in the data set on lung-NCS (NCI-H460) was 0.74 µg/mL.

In the data set “in vitro” (setting [12]), `COc1ccc(C=Cc2cc(OC)c(OC)c(OC)c2)c(OC2OC(CO)C(O)C(O)C2O)c1O` [Compound 5a, combretastatin A-1-2′-O-β-D-glucopyranoside] had a CC50 at 48 h of 83.8 µg/mL (≈ 169 µM). Also, in data set [2], the CC50 worked out at 44.1 µg/mL (≈ 89.2 µM) and the “Selectivity Index MCF-7” value was 1.90.

In turn, `COc1ccc(CCc2cc(OC)c(OC)c(OC)c2)c(OC2OC(CO)C(O)C(O)C2O)c1O` [Compound 5b, combretastatin B-1-2′-O-β-D-glucopyranoside] registered a CC50 at 48 h in the data set “in vitro” (setting [12]) of 83.8 µg/mL (≈ 169 µM). In addition, in [2], the CC50 turned out to be 44.1 µg/mL (≈ 88.8 µM) and the “Selectivity Index MCF-7” value came to 1.90.

In the data set “in vitro”, `CC[C@H](C=C[C@@H](C)[C@H]1CC[C@H]2[C@@H]3CC=C4C[C@@H](O)CC[C@]4(C)[C@H]3CC[C@]12C)C(C)C` [Compound 6, stigmasta-5,22-dien-3β-ol] had a CC50 at 48 h of 137 µg/mL (≈ 332 µM). In addition, the selectivity ratio at 48 h in data set [7] is less than 0.69. Moreover, the CC50 in data set [1] and in data set [2] was more than 200 µg/mL throughout. Moreover, the “Selectivity Index MCF-7” value in data set [2] was less than 0.690. Moreover, the negative-log IC50 (pIC50) in the data set with MCF-7 (stigmasterol, read-out: MCF-7 IC50) is less than 3.30; in data set [10] it was 5.55; in the data set on colon cancer cell Caco-2, 3.88; in data set [11] it was less than 3.30.

`COc1cccc2c1C(=O)c1c(O)c3c(c(O)c1C2=O)C[C@@](O)(C(=O)CO)C[C@@H]3O[C@H]1C[C@H](N)[C@H](O)[C@H](C)O1` [Doxorubicin, reference compound] showed a CC50 at 48 h in the data set “in vitro” (African green monkey) of 6.9 µg/mL (≈ 12.7 µM). In data set [7], the selectivity ratio at 48 h is 9.08. In [1], the CC50 was 0.76 µg/mL (≈ 1.4 µM). Besides, in data set [2], the CC50 is 3.1 µg/mL (≈ 5.7 µM) and the “Selectivity Index MCF-7” value amounted to 2.20.
